Measured values published in publication PMC12592502, “Unraveling the mechanisms behind the enhanced efficacy of β-lactam-based sideromycins” (Communications Biology, 2025).
In brackets after ≈: the same amount, converted by molar mass. Several values for one entry are separate records, joined by “and”; a condition that tells them apart may be missing. Equal values may be shown once. Read-outs that look alike come from different tables or passages of the source.

Legend:
E. coli ATCC 25922 = experiment: MIC, broth microdilution (CLSI); type: cell-based, Escherichia coli; conditions: for MIC: Escherichia coli
Experimental: (§1) All bacterial strains (see description and sources Table S1) were stored at −80 °C, and grown on tryptone soya agar (TSA) at 35 °C. The iron-deprived (ID)-MHBCA (cation-adjusted Muller-Hinton Broth, Becton Dickinson, Mississauga, ON, Canada) medium was prepared as reported by refs. [21],[50]. Briefly, MHBCA was treated with 10% Chelex® 50-100 mesh (Sigma) and stirred for 6 h at room temperature. The resin was removed by filtration. Divalent Ca^2+ (CaCl2), Mg^2+ (MgCl2), and Zn^2+(ZnSO4), were then added in the iron-depleted medium at 22, 12, and 1 μg/ml respectively. Finally, the pH was adjusted to 7.3, and the medium was sterilized with a 0.2-μm filter. Regular MHBCA (i.e., not treated with Chelex®) was used to compare the inhibitory activity of conjugates in iron-sufficient conditions.
(§2) Minimal inhibitory concentrations (MICs) were performed using a broth microdilution technique according to the Clinical and Laboratory Standards Institute (CLSI) guidelines. MICs were determined in MHBCA and in ID-MHBCA. To check the impact of β-lactamases, MICs in the presence of a β-lactamase inhibitor were also determined. The inhibitor was homogenized at 2X the final concentration and added to the bacterial inoculum just before distributing cells into the wells containing the drug dilutions. The final concentration of each inhibitor was 4 μg/mL for clavulanic acid (tested against K. pneumoniae) and 200 μg/mL for 3-aminophenylboronic acid (tested against P. aeruginosa and A. baumannii).

K. pneumoniae ATCC 13883 = experiment: MIC, broth microdilution (CLSI); type: cell-based, Klebsiella pneumoniae; conditions: for MIC with β-lactamase inhibitor (βI): + 4 μg/mL clavulanic acid
Experimental: as §1, with “conditions. The resin used for Chelex treatment was always fresh and had never been regenerated, ensuring consistent iron removal.” for “conditions.”
as §2

E. coli ΔcirA = experiment: MIC, Keio mutant; type: cell-based, Escherichia coli; conditions: Escherichia coli
Experimental: as §1, §2

E. coli ΔfhuA = experiment: MIC, Keio mutant; type: cell-based, Escherichia coli; conditions: Escherichia coli, ID-MHBCA
Experimental: as §1, §2

E. coli Δfiu = experiment: MIC, Keio mutant; type: cell-based, Escherichia coli
Experimental: as §1, §2

E. coli ΔampC = experiment: MIC, Keio mutant; type: cell-based, Escherichia coli; conditions: Escherichia coli
Experimental: as §1, with “conditions. The resin used for Chelex treatment was always fresh and had never been regenerated, ensuring consistent iron removal.” for “conditions.”
as §2

E. coli ΔacrAB = experiment: MIC, efflux pump mutant; type: cell-based, Escherichia coli; conditions: Escherichia coli
Experimental: as §2

P. aeruginosa 1020 = experiment: MIC, parent of efflux pump mutants; type: cell-based, Pseudomonas aeruginosa; conditions: Pseudomonas aeruginosa
Experimental: as §2

PBP2 = PBP2 (Klebsiella pneumoniae, UniProt A6T696); experiment: Membrane PBP binding assay, competition with Bocillin FL; design: species or system K. pneumoniae ATCC 13883; conditions: K. pneumoniae ATCC 13883 membranes; read-out: IC50 PBP2
Experimental: Membrane extracts containing PBPs were obtained as described above. Briefly, all species were grown in 1 L of TSB until the OD600 reached 0.9. The washed pellet was incubated with lysozyme (400 μg/mL), DNase (10 μg/mL) RNase(10 μg/mL) and anti-protease cocktail (200 mg/20 mL). Lysis was done with a French press (20,000 psi) and membrane protein were pelleted by ultracentrifugation steps (100,000 × g). The pellet was suspended in a minimal volume (300–500 μL) of KP 0.05 M buffer at pH 7. The protein concentration in the membrane preparations was determined with the Micro BCA TM Protein Assay Kit (Thermo Fisher Scientific, Rockford, IL) using bovine serum albumin as a standard.
The PBP binding assay was done as described previously[36],[56],[57]. For each antibiotic concentration tested, a quantity of 25 to 40 μg of membrane preparation was used as the source of PBPs, depending on the species. For the purified PaPBP3, 150 ng was used in the assay. First, increasing concentrations of the test antibiotic was added to the membrane or purified PaPBP3 preparations and incubated for 10 min at 30 °C. The reporter molecule Bocillin FL was then added at 12.5 μM for the membrane PBPs preparations and at 500 nM for the pure PaPBP3 samples for an additional 20 min at 30 °C. All reactions were stopped with the addition of the Laemmli-loading buffer (Bio-Rad) containing fresh β-mercaptoethanol (Sigma). All reactions were then heated at 100°C for 3 min before migration on SDS-polyacrylamide discontinuous gel system (7.5% stacking and 10% separating). Control samples without Bocillin FL were also included to highlight autofluorescent proteins that are not PBPs.
To be able to visualize labeled PBPs after electrophoresis, gels were rinsed in water and fixed in a solution of 50% methanol and 7% acetic acid for 30 min. The fluorescent images of gels were obtained with the Typhoon FLA 9500 instrument (GE-Healthcare Bio-Sciences Inc., Baie-d’Urfé, QC, CA) using a 473 nm excitation wavelength. To obtain quantifiable data, the software Quantity One 1D analysis was used (version 4.6.6; Bio-Rad Laboratories, Richmond, CA). The volume (intensity × constant area) of each PBP was measured. […] All IC50 data were obtained from at least two independent PBP binding assays using two different sets of compound concentrations using a linear regression. The PBP profiles were confirmed, and the PBP numbering were determined using published data and individual molecular weights. […] For example, amdinocillin (Sigma) was used for PBP2 identification. […] The IC50 for PBP 2 of P. aeruginosa was measured by including the SDS-PAGE comigrating autofluorescent protein in the background, as done previously.

[1] = ATCC25922, ID-MHBCA + 1 µg/mL supplemental iron
[2] = ID-MHBCA (−), 0 µg/mL supplemental iron
[3] = Klebsiella pneumoniae, ATCC13883, ID-MHBCA (−), 0 µg/mL supplemental iron
[4] = Klebsiella pneumoniae, ATCC13883, ID-MHBCA + 1 µg/mL supplemental iron
[5] = Klebsiella pneumoniae, ATCC13883, MHBCA (+)

Sequence of PBP2 (A6T696 entry or part of it): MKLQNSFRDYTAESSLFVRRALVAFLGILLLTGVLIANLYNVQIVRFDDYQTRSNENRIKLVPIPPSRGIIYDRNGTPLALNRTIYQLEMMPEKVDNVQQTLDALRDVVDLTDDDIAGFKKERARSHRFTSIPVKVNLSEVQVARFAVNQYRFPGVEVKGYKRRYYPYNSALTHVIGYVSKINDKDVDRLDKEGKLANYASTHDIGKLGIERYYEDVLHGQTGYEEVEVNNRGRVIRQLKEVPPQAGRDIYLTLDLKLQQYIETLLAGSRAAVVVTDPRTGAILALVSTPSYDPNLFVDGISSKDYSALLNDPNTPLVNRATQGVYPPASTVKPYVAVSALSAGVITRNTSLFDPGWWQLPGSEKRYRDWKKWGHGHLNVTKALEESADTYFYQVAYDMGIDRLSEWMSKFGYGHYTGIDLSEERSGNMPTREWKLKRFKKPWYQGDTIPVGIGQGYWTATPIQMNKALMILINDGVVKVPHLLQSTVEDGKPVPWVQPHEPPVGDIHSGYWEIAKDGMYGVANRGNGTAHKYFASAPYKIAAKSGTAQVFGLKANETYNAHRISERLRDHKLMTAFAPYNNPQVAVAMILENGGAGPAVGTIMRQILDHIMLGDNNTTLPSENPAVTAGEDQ

Structure (SMILES) | MIC (E. coli ATCC 25922; [1]) | MIC (K. pneumoniae ATCC 13883; [2]) | MIC with β-lactamase inhibitor (βI) (K. pneumoniae ATCC 13883; ID-MHBCA) | MIC (K. pneumoniae ATCC 13883; [3]) | MIC (K. pneumoniae ATCC 13883; [4]) | MIC (K. pneumoniae ATCC 13883; [5]) | MIC (K. pneumoniae ATCC 13883; MHBCA (+)) | MIC with β-lactamase inhibitor (βI) (K. pneumoniae ATCC 13883; MHBCA) | MIC (E. coli ΔcirA; ID-MHBCA) | MIC (E. coli ΔfhuA) | MIC (E. coli Δfiu; Escherichia coli, ID-MHBCA) | MIC (E. coli ΔampC; ID-MHBCA) | MIC (E. coli ΔampC; MHBCA) | MIC (E. coli ΔacrAB) | IC50 (PBP2) | other results
CC1(C)S[C@@H]2[C@H](NC(=O)[C@H](N)c3ccccc3)C(=O)N2[C@H]1C(=O)O [AMP, ampicillin, reference compound] | 25 µM | >200 µM | 6.3 µM | > 200 µM | > 200 µM | > 200 µM | >200 µM | 6.3 μM and 6.3^d μM | 25 µM (≈ 8.74 µg/mL) | 25 µM (≈ 8.74 µg/mL) | 25 µM (≈ 8.74 µg/mL) | 6.3 µM (≈ 2.2 µg/mL) | 6.3 µM (≈ 2.2 µg/mL) | 6.3 µM (≈ 2.2 µg/mL) | 9.2 ± 1.9 µM | MIC (P. aeruginosa 1020; 1020): > 200 µM
CC1(C)SC2C(NC(=O)C(NC(=O)CN(CCCCNC(=O)c3cccc(O)c3O)C(=O)c3cccc(O)c3O)c3ccccc3)C(=O)N2C1C(=O)O (centres unmarked) [BAMP, bis-catechol (azotochelin)-ampicillin] | 0.2 µM | >200 µM | 0.4 µM | > 200 µM | > 200 µM | > 200 µM | >200 µM | 1.6 µM | 0.2 to 13 µM (≈ 0.15 to 9.75 µg/mL) | 0.1 µM (≈ 0.075 µg/mL) | 0.024 µM (≈ 0.018 µg/mL) | 0.012 µM (≈ 0.009 µg/mL) | 0.024 µM (≈ 0.018 µg/mL) | 0.05 µM (≈ 0.0375 µg/mL) | 5.1 ± 2.1 µM | MIC (E. coli ATCC 25922; ATCC25922, ID-MHBCA + 0.1 µg/mL supplemental iron): 0.1 µM; MIC (E. coli ATCC 25922; ATCC25922, MHBCA (+)): 0.1 µM (≈ 0.075 µg/mL); MIC (E. coli ATCC 25922; ATCC25922, iron-deprived ID-MHBCA (−), 0 µg/mL supplemental iron): 0.05 µM (≈ 0.0375 µg/mL); MIC ratio unconjugated β-lactam/conjugate (E. coli ATCC 25922; ID-MHBCA): 256; MIC ratio 0/1 (E. coli ATCC 25922; ID-MHBCA, 0 and 1 µg/mL supplemental iron (Table S2)): 4; MIC ratio 1/0 (E. coli ATCC 25922; ID-MHBCA, 1 versus 0 µg/mL supplemental iron (peer review file table)): 4; MIC ratio unconjugated β-lactam/conjugate (AMP/BAMP, LOR/BLOR, CEF/MCEF) (E. coli ATCC 25922; MHBCA): 128; MIC ratio unconjugated β-lactam/conjugate (K. pneumoniae ATCC 13883; ID-MHBCA): No activity; MIC ratio unconjugated β-lactam/conjugate (K. pneumoniae ATCC 13883; MHBCA): No activity; MIC (E. coli ΔcirA; MHBCA): 13 µM (≈ 9.75 µg/mL); MIC (E. coli Δfiu; Escherichia coli, MHBCA): 0.1 to 0.4 µM (≈ 0.075 to 0.3 µg/mL); MIC (E. coli Δfiu; MHBCA): 0.2 µM (≈ 0.15 µg/mL); MIC (P. aeruginosa 1020; P. aeruginosa 1020, read-out: MIC): 0.4 µM (≈ 0.3 µg/mL)
